A word on the IC50: it is the concentration that inhibits the measured activity by half.

Ten compounds from patent US11965039B2, “Compstatin analogues and their medical uses” (priority 2018, dated 2024) can be followed below.

SMILES strings stand for the structures. Starred links: 1 amine or outer side, 2 acyl side, 3 side chain; linkers in the order of their positions; H or OH if unused. Positions of bridges follow the written chain, without caps; N, C: chain ends. Non-standard residues stand in square brackets, D forms with d. Residues, ends and D or L forms follow the SMILES beside them. Groups on a side chain read outwards from the residue. *: point of attachment. Trp(1-Me) = Cn1cc(C[C@H](N)C(=O)O)c2ccccc21; C18 diacid = O=C(O)CCCCCCCCCCCCCCCCC(=O)*; γGlu = O=C(O)[C@H](CCC(=O)[*:2])N[*:1]; AEEA = NCCOCCOCC(=O)O; Sar = CNCC(=O)O Bounds are passed on as bounds.

The first experiment relates to classical complement pathway. The experiment can be described thus: In vitro haemolysis assay (inhibition of classical complement pathway). To be noted: human serum, sensitized sheep red blood cells; Table 3, given as upper bounds; read-out: IC50, inhibition of hemolysis. The format is cell-based, human. On the procedure:
The in vitro effect of the compounds of the present invention was assessed by measuring their inhibitory effect of the classical complement pathway in a haemolysis assay. Briefly, compounds of the present invention and reference compounds were dissolved in DMSO and diluted in Tris/Casein Assay Buffer (10 mM Tris, 145 mM NaCl, 0.5 mM MgCl2, 0.15 mM CaCl2), and 0.1% W/V Casein, adjusted to pH 7.4) as 9-point serial dilutions in a 96 well plate. Sensitized sheep red blood cells (RBC) coated with rabbit anti-sheep erythrocyte antiserum (Complement Technology, Inc., TX, USA) were washed in Tris/Casein Assay Buffer. […] from each well of diluted compound was added to a 96-well plate containing 50 μL diluted human serum (Complement Technology, Inc., TX, USA) and incubated for 15 minutes at room temperature. The serum dilution factor was optimized for every serum batch to obtain 70-90% of maximal haemolysis using the protocol. Then 50 μL sensitized sheep red blood cells were added to all wells (10^7 per well). After 30 minutes of incubation at 37 QC with gentle agitation, the reaction was stopped by addition of 50 μL Tris STOP Buffer per well (10 mM EDTA, 10 mM Tris, 145 mM NaCl adjusted to pH 7.4). The RBCs were then removed by centrifugation and the resulting supernatant measured for hemolysis by absorbance at 405 nm. The response was normalized relative to a positive and negative control (vehicle) to calculate the IC50 from the concentration response curve using the 4-parameter logistic (4PL) nonlinear model for curve fitting.
On to `CC[C@H](C)[C@@H]1NC(=O)[C@@H](NC(=O)[C@H](Cc2ccccc2)NC(=O)[C@H](CCC(=O)O)NC(=O)[C@H](CO)NC(C)=O)CSSC[C@@H](C(=O)N(C)CC(=O)N[C@@H](CCC(=O)O)C(=O)NCC(=O)N[C@@H](CCC(=O)O)C(=O)NCC(=O)NCC(=O)NCC(=O)N[C@@H](CCCCNC(=O)CC[C@H](NC(=O)CNC(=O)CC[C@H](NC(=O)CCCCCCCCCCCCCCCCC(=O)O)C(=O)O)C(=O)O)C(N)=O)NC(=O)[C@H](CCCNC(=N)N)NC(=O)[C@H](Cc2c[nH]cn2)NC(=O)[C@H](CCC(=O)O)NC(=O)CNC(=O)[C@H](Cc2c[nH]c3ccccc23)NC(=O)[C@H](CC(=O)O)NC(=O)[C@H](CCC(N)=O)NC(=O)[C@H](Cc2cn(C)c3ccccc23)NC1=O` [Compound 129] (Ac-SEFCI[Trp(1-Me)]QDWGEHRC[Sar]EGEGGGK([γGlu-Gly-γGlu-C18 diacid])-NH2; disulfide 4-14), for which the IC50 was below 100 nM.
Same read-out and setting: the value for `CC[C@H](C)[C@@H]1NC(=O)[C@@H](NC(=O)[C@H](Cc2ccc(O)cc2)NC(=O)[C@H](C)NC(=O)[C@H](CO)NC(=O)[C@H](CO)NC(=O)[C@H](CCC(=O)O)NC(C)=O)CSSC[C@@H](C(=O)N[C@H](C(N)=O)[C@@H](C)O)NC(=O)[C@H](CCCNC(=N)N)NC(=O)[C@H](Cc2c[nH]cn2)NC(=O)[C@H](CCC(=O)O)NC(=O)CNC(=O)[C@H](Cc2c[nH]c3ccccc23)NC(=O)[C@H](CC(=O)O)NC(=O)[C@H](CCC(N)=O)NC(=O)[C@H](Cc2c[nH]c3ccccc23)NC1=O` [Compound 10] (Ac-ESSAYCIWQDWGEHRCT-NH2; disulfide 6-16) was below 100 nM; that for `CC[C@H](C)[C@@H]1NC(=O)[C@@H](NC(=O)[C@H](Cc2ccccc2)NC(=O)[C@H](CCC(=O)O)NC(C)=O)CSSC[C@@H](C(=O)N(C)CC(=O)N[C@@H](CCC(=O)O)C(=O)N[C@@H](C)C(=O)NCCOCCOCC(=O)NCCOCCOCC(=O)N[C@@H](CCCCNC(=O)CC[C@H](NC(=O)CNC(=O)CC[C@H](NC(=O)CCCCCCCCCCCCCCCCC(=O)O)C(=O)O)C(=O)O)C(N)=O)NC(=O)[C@H](CCCNC(=N)N)NC(=O)[C@H](Cc2c[nH]cn2)NC(=O)[C@H](CCC(=O)O)NC(=O)CNC(=O)[C@H](Cc2c[nH]c3ccccc23)NC(=O)[C@H](CC(=O)O)NC(=O)[C@H](CCC(N)=O)NC(=O)[C@H](Cc2cn(C)c3ccccc23)NC1=O` [Compound 145] (Ac-EFCI[Trp(1-Me)]QDWGEHRC[Sar]EA[AEEA][AEEA]K([γGlu-Gly-γGlu-C18 diacid])-NH2; disulfide 3-13) was below 100 nM.
In the case of `CC[C@H](C)[C@H](NC(C)=O)C(=O)N[C@H]1CSSC[C@@H](C(=O)N[C@H](C(N)=O)[C@@H](C)O)NC(=O)[C@H](CCCNC(=N)N)NC(=O)[C@H](Cc2c[nH]cn2)NC(=O)[C@H](CCCCN)NC(=O)CNC(=O)[C@H](Cc2c[nH]c3ccccc23)NC(=O)[C@H](CC(=O)O)NC(=O)[C@H](CCC(N)=O)NC(=O)[C@H](Cc2c[nH]c3ccccc23)NC(=O)[C@H]([C@@H](C)CC)NC1=O` [Compound 5] (Ac-ICIWQDWGKHRCT-NH2; disulfide 2-12), the IC50 is below 250 nM.
On the same count and under the same terms, the value for `CC[C@H](C)[C@H](NC(C)=O)C(=O)N[C@H]1CSSC[C@@H](C(=O)N[C@@H](CCC(=O)O)C(N)=O)NC(=O)[C@H](CCCNC(=N)N)NC(=O)[C@H](Cc2c[nH]cn2)NC(=O)[C@H](C)NC(=O)CNC(=O)[C@H](Cc2c[nH]c3ccccc23)NC(=O)[C@H](CC(=O)O)NC(=O)[C@H](CCC(N)=O)NC(=O)[C@H](Cc2c[nH]c3ccccc23)NC(=O)[C@H]([C@@H](C)CC)NC1=O` [Compound 12] (Ac-ICIWQDWGAHRCE-NH2; disulfide 2-12) was below 100 nM; that for `CC[C@H](C)[C@H](NC(C)=O)C(=O)N[C@H]1CSSC[C@@H](C(=O)N[C@H](C(N)=O)[C@@H](C)O)NC(=O)[C@H](CCCNC(=N)N)NC(=O)[C@H](Cc2c[nH]cn2)NC(=O)[C@H](CCC(=O)O)NC(=O)CNC(=O)[C@H](Cc2c[nH]c3ccccc23)NC(=O)[C@H](CC(=O)O)NC(=O)[C@H](CCC(N)=O)NC(=O)[C@H](Cc2cn(C)c3ccccc23)NC(=O)[C@H]([C@@H](C)CC)NC1=O` [Compound 4] (Ac-ICI[Trp(1-Me)]QDWGEHRCT-NH2; disulfide 2-12) was below 100 nM.
For the compound `CC[C@H](C)[C@@H]1NC(=O)[C@@H](NC(=O)[C@H](Cc2ccccc2)NC(=O)[C@H](CCC(=O)O)NC(C)=O)CSSC[C@@H](C(=O)N[C@@H](CCC(=O)O)C(=O)NCC(=O)N[C@@H](CCC(=O)O)C(=O)N[C@@H](CCCCNC(=O)CC[C@H](NC(=O)CNC(=O)CC[C@H](NC(=O)CCCCCCCCCCCCCCCCC(=O)O)C(=O)O)C(=O)O)C(N)=O)NC(=O)[C@H](CCCNC(=N)N)NC(=O)[C@H](Cc2c[nH]cn2)NC(=O)[C@H](CCC(=O)O)NC(=O)CNC(=O)[C@H](Cc2c[nH]c3ccccc23)NC(=O)[C@H](CC(=O)O)NC(=O)[C@H](CCC(N)=O)NC(=O)[C@H](Cc2cn(C)c3ccccc23)NC1=O` [Compound 134] (Ac-EFCI[Trp(1-Me)]QDWGEHRCEGEK([γGlu-Gly-γGlu-C18 diacid])-NH2; disulfide 3-13), the half-inhibitory concentration (IC50) was below 100 nM.
Turning to `CC[C@H](C)[C@@H]1NC(=O)[C@@H](NC(=O)[C@@H](NC(=O)[C@H](CCCCN)NC(=O)[C@H](CCC(=O)O)NC(=O)[C@H](CCCCN)NC(C)=O)[C@@H](C)CC)CSSC[C@@H](C(=O)N[C@H](C(=O)N[C@@H](CCC(=O)O)C(=O)N[C@@H](CCCCN)C(=O)N[C@@H](CCC(=O)O)C(N)=O)[C@@H](C)O)NC(=O)[C@H](CCCNC(=N)N)NC(=O)[C@H](Cc2c[nH]cn2)NC(=O)[C@H](CCC(=O)O)NC(=O)CNC(=O)[C@H](Cc2c[nH]c3ccccc23)NC(=O)[C@H](CC(=O)O)NC(=O)[C@H](CCC(N)=O)NC(=O)[C@H](Cc2c[nH]c3ccccc23)NC1=O` [Compound 37] (Ac-KEKICIWQDWGEHRCTEKE-NH2; disulfide 5-15), the half-inhibitory concentration (IC50) was below 250 nM.
On the same count and under the same terms, the value for `CC[C@H](C)[C@@H]1NC(=O)[C@@H](NC(=O)[C@H](Cc2ccccc2)NC(=O)[C@H](CCC(=O)O)NC(=O)[C@H](CO)NC(C)=O)CSSC[C@@H](C(=O)N[C@H](C(=O)N[C@@H](CCC(=O)O)C(=O)N[C@@H](CCCCN)C(=O)N[C@@H](CCC(=O)NCC(=O)NCC(=O)NCC(=O)N[C@@H](CCCCNC(=O)CC[C@H](NC(=O)CNC(=O)CC[C@H](NC(=O)CCCCCCCCCCCCCCCCC(=O)O)C(=O)O)C(=O)O)C(N)=O)C(=O)O)[C@@H](C)O)NC(=O)[C@H](CCCNC(=N)N)NC(=O)[C@H](Cc2c[nH]cn2)NC(=O)[C@H](CCC(=O)O)NC(=O)CNC(=O)[C@H](Cc2c[nH]c3ccccc23)NC(=O)[C@H](CC(=O)O)NC(=O)[C@H](CCC(N)=O)NC(=O)[C@H](Cc2cn(C)c3ccccc23)NC1=O` [Compound 133] (Ac-SEFCI[Trp(1-Me)]QDWGEHRCTEK[γGlu]GGGK([γGlu-Gly-γGlu-C18 diacid])-NH2; disulfide 4-14) was below 100 nM.

Staying with this experiment, now noted: read-out: IC50, inhibition of hemolysis.
Take `CC[C@H](C)[C@@H]1NC(=O)[C@@H](NC(=O)[C@H](Cc2ccccc2)NC(=O)[C@H](CCC(=O)O)NC(=O)[C@H](CO)NC(C)=O)CSSC[C@@H](C(=O)N[C@@H](CO)C(=O)N[C@@H](CCC(=O)O)C(=O)N[C@@H](C)C(N)=O)NC(=O)[C@H](CCCNC(=N)N)NC(=O)[C@H](Cc2c[nH]cn2)NC(=O)[C@H](CCC(=O)O)NC(=O)CNC(=O)[C@H](Cc2c[nH]c3ccccc23)NC(=O)[C@H](CC(=O)O)NC(=O)[C@H](CCC(N)=O)NC(=O)[C@H](Cc2cn(C)c3ccccc23)NC1=O` [Compound 84] (Ac-SEFCI[Trp(1-Me)]QDWGEHRCSEA-NH2; disulfide 4-14): the IC50 is below 100 nM.
